For two molecules, IC50 and Ki results are on record in US6927401B1, “Method of characterizing fluorescent molecules or other particles using generating functions” (Evotec OAI AG, priority 1999, dated 2005).

Assay [1] relates to monoclonal antibody exposed on the surface of hybridoma cell line HB-8152.
Protocol: The cell number of a confluent hybridoma culture was determined to be 1.6×10^6 per ml and aliquotes with approx. 0.5×10^6 hybridoma cells in 100 μl were used for each single experiment. The cells were washed in 100 μl phosphate buffered saline (PBS) buffer for 5 minutes to remove soluble antibody from the assay. Subsequently, the cells were incubated for 30 minutes in 100 μl PBS containing the theophylline-TAMRA conjugate at different concentrations: 0, 0.4, 2, 8, 16, 40, 200, 800 nM. […] The degree of fluorescence labelling of the hybridoma cells was determined for each single experiment in four independent measurements.
In another assay the target is T1, EGF receptor (Homo sapiens, UniProt P00533).
T1 construct: endogenous in cells; host or cells: HCT (human colon carcinoma tumor) cells, crude membranes
In words: FIDA competition assay, HCT membranes with TMR-EGF and competitor. To be noted: binding normalized to absence of competitor, read-out: affinity (competition with TMR-EGF).

Protocol for EGF receptor: Binding was determined by the method according to the present invention and was normalized to that in the absence of competitor.

In turn, `Cn1c(=O)c2[nH]cnc2n(C)c1=O` [theophylline, 1,3-dimethylxanthine] yielded an IC50 in assay [1] of 250 nM.

Regarding “betacellulin: polypeptide growth factor with sequence identity with EGF, from R & D Systems”, in the assay with EGF receptor, the Ki amounted to 0.23 ± 0.02 nM.
